Results published in patent publication US20180194836A1, “PREVENTION OF METASTASIS AND RECURRENCE AFTER PRIMARY CANCER TREATMENT” (ENCYT TECHNOLOGIES, INC., priority 2014, published 2018).

Tests used:
[1] = tested on: HCT-15 cells; test: Cell proliferation / cell subpopulations in HCT-15 cell line after cytokines and cytokine cocktails (flow cytometry); format: cell-based; design: unit not given here; settings: HCT-15 cells after exposure to cytokine combinations
Description: Cell proliferation of cancer and/or cancer stem cell populations with selected cytokine and cytokine cocktails on serum starved colorectal carcinoma cell lines. Prior to incubation cells were stained with a cell proliferation dye, which binds stoichiometrically to DNA. Intensity of the dye decreased upon cell division thereby signifying cell proliferation.
Two authenticated colorectal carcinoma cell lines, HCT-15 and SW-620, were used to test the effect of different cytokine and cytokine cocktails, including IL-6, HGF, PGE-2, TGF-beta and MMP-9 alone or in a cocktail, on cell proliferation, EMT and cancer stem cell populations.
In order to evaluate stem cell populations, cells were synchronized by serum starvation for 72 hours before seeding in 24-well ultra low attachment plates at a density of 200,000 cells/well. Cells were then detached using trypsin EDTA and washed twice with PBS (without Calcium or Magnesium). A cell proliferation dye, eFluor 450 was used to label cells. Cells were grown with DMEM with high glucose and 2 mM Gluatmine without FBS in the presence of selected cytokines and or cytokine cocktails over a period of 72 hrs.
Cells that were grown in 5% serum were stained with the following antibody cocktails: CD24FITC, CD44PE and CD24FITC, CD133PE. Cells were also stained with a fixable live/dead efluor dye 506 to exclude dead cells. In parallel, cells were grown in the presence of 5% serum to evaluate CSC markers.
(§1) Cells were fixed in 1% Paraformaldehyde for 15 minutes at room temperature and run on Flowsight using 2 lasers (488 nm at 60 mW and 405 nm at 30 mW). For cell lines, 100,000 events were collected whilst for enriched CTCs all events were collected until the sample finished.
(§2) Flow cytometry data was analysed using IDEAS software. Double events, out of focus events, CD45PerePCy5.5 positive cells (in case of enriched CTCs), dead cells and non-nucleated events were eliminated from the fluorescence analysis of the cell population. FIG. 2 depicts scatterplots of flow cytometry experiments showing the enriched CTCs stained with an antibody containing CD44 after treatment with various cytokines and cytokine cocktails. Hoescht 33258 dye was used to stain nuclei in the case of the HCT-15 cell line and enriched CTCs. All experiments were stained with a fixable live/dead dye eFluor 506 to exclude dead cells.
To evaluate which cocktail combinations were most likely involved in cell proliferation of presumed quiescent stem cells or de-differentiated stein cell-like cells, four cytokines, IL-6, HGF, PGB-2 and TO were added singly or in pairs to HCT-15 cells. Results of combinations that influenced cell proliferation of HCT-15 cells in culture are presented. […] FIG. 4 depicts cell proliferation of subpopulations in the HCT-15 cell line after exposure to various cytokines and cytokine cocktails.

[2] = tested on: enriched circulating tumour cells (CTCs); test: Cell proliferation / cancer stem cell markers in enriched CTCs from a patient with metastatic prostate cancer cultured with cytokine cocktails; format: cell-based, human; settings: for EpCAM+CD133+ gated subpopulation / EpCAM+CD133− gated subpopulation / EpCAM−CD133+ gated subpopulation / EpCAM−CD133− gated subpopulation: enriched CTCs (metastatic prostate cancer patient) cultured with cytokine or cytokine cocktail, flow cytometry, antibody cocktail EpCAM A488, CD133 PE, CD45 PerCPCy5.5, percentages of gated subpopulations; for proliferation of EpCAM-CD44+ cell sub-population: no serum, no cytokines 2.2%; for Cell population EpCAM+CD44+ / Cell population EpCAM+CD44− / Cell population EpCAM−CD44+ / Cell population EpCAM−CD44−: metastatic prostate cancer patient, cell culture period 8 days
Description: as §1
as §2, with “cocktails.” for “cocktails. Hoescht 33258 dye was used to stain nuclei in the case of the HCT-15 cell line and enriched CTCs. All experiments were stained with a fixable live/dead dye eFluor 506 to exclude dead cells.”
In order to determine if selected cytokines influence cell proliferation of circulating tumour cells (CTCs), whole blood was collected from a patient with metastatic prostate cancer. Circulating tumour cells were enriched from whole blood using RosetteSep CTC Enrichment cocktail. Briefly, samples of whole blood were incubated with RosetteSep (anti CD 56 for 20 minutes at room temperature). Phosphate buffered saline containing 2% Fetal Bovine Serum was added to the samples and layered on a Ficoll Paque gradient. After centrifugation, the supernatant which contained CTCs was washed twice with PBS containing 2% FBS. Equal volumes of the cell suspension were seeded into a 24-well ultra-low attachment polystyrene plate. […] FIG. 3 depicts scatterplots of flow cytometry experiments enriched CTCs stained with an antibody containing CD133 after treatment with various cytokines and cytokine cocktails.
FIG. 6 depicts cell proliferation of subpopulations in cultured CTCs after exposure to various cytokines and cytokine cocktails. Cells were stained using an antibody containing CD44 PE.
Cells were stained using an antibody containing CD133 PE.

[3] = tested on: SW-620 cells; test: SW-620 cells treated with cytokines then Irinotecan; flow cytometry for stem cell markers and apoptosis; format: cell-based, human; settings: SW-620, preliminary data
Description: SW-620 cells, a human colorectal adenocarcinoma cell line, were treated with cytokines alone or in combination including IL-6, TGF-beta, HGF, PGE-2, IL-6+PGE-2 and TGF-beta+HGF for 24 hours and compared to untreated SW-620 cells as control, Some treated and untreated SW-620 cells were then exposed to 2 μM Irinotecan for 36 hours at which point cells were harvested for flow cytometry to assess for stem cell markers and markers of apoptosis. The percentage of CD44+CD133− cells following treatment with various cytokine and cytokine cocktails is depicted in FIG. 10. Compared to non-cytokine treated cells, combinations with IL-6+PGE-2, and TGF-beta+HGF increased the number and percentage of cells that were CD44+CD133− as shown in FIG. 10 (stem cells). FIG. 11 depicts the percentage of CD44+CD133− cells following treatment with various cytokines and Irinotecan. Treatment with IL-6+Irinotecan and TGF+Irinotecan increased the percentage of CD44+CD133− stem cells to 2% (from zero in non-treated control cells) as shown in FIG. 11. FIG. 12 depicts the percentage of CD44+CD133− cells following treatment with various cytokine cocktails and Irinotecan. A combination of TGF+HGF+Irinotecan increased the percentage of CD44+CD133− stem cells to 2% (from zero in non-treated control cells) as shown in FIG. 12. […]

[4] = tested on: enriched circulating tumour cells (CTCs); test: Enriched CTCs from a patient with colorectal cancer cultured with IL-6, IL-8 or PDGFBB (EpCAM/CD133 flow cytometry); format: cell-based, human; settings: for EpCAM+CD133+ gated subpopulation / EpCAM+CD133− gated subpopulation / EpCAM−CD133+ gated subpopulation / EpCAM−CD133− gated subpopulation: colorectal cancer patient
Excerpt: A blood sample was collected from a patient with colorectal cancer six days after surgery, Blood samples were enriched for CTCs using RosetteSep CD 56 kit according to standard protocol. Prior to cell culture, cells were stained with the following antibody cocktail: EpCAM A488, CD133PE, CD 45 PerCP Cy5.5, and Lgr5-PE-Vio770. Cells were either cultured in low attachment well plates without cytokines (control cells) or with three different cytokines (IL-6, IL-8 or PDGFBB).
Flow cytometry data was analysed using IDEAS software. Double events, out of focus events, CD45PercPCy5.5 positive cells, dead cells and non-nucleated events were eliminated from the fluorescence analysis of the cell population. Hoescht 33258 dye was used to stain nuclei of enriched CTCs. All experiments were stained with a fixable live/dead dye eFluor 506 to exclude dead cells.

[5] = tested on: breast cancer; settings: perioperative, 9-18 month period of greatest risk, compared to other analgesics or NSAIDs post-operatively; cited from earlier work
[6] = early use after coronary artery bypass surgery; cited from earlier work
[7] = tested on: B16 amelanotic melanoma model; settings: cited from earlier work
[8] = tested on: premetastatic niche formation; settings: disruption of niche formation; cited from earlier work
[9] = tested on: colon cancer; settings: cited from earlier work

Molecule | CD24+CD44− cell subpopulation [1] | CD44+CD24+ cell subpopulation [1] | CD44+CD24− cell subpopulation [1] | CD44−CD24− cell subpopulation [1] | EpCAM+CD133+ gated subpopulation [2] | EpCAM+CD133− gated subpopulation [2] | EpCAM−CD133+ gated subpopulation [2] | EpCAM−CD133− gated subpopulation [2] | Cell population EpCAM+CD44+ ([2]; enriched CTCs) | Cell population EpCAM+CD44− ([2]; enriched CTCs) | Cell population EpCAM−CD44+ ([2]; enriched CTCs) | Cell population EpCAM−CD44− ([2]; enriched CTCs) | EpCAM+CD133+ gated subpopulation [4] | EpCAM+CD133− gated subpopulation [4] | EpCAM−CD133+ gated subpopulation [4] | EpCAM−CD133− gated subpopulation [4] | other results
CCCCC[C@H](O)/C=C/[C@H]1[C@H](O)CC(=O)[C@@H]1C/C=C\CCCC(=O)O [PGE-2, prostaglandin E2, reference compound] | 58.7 | 7.3 | 0.61 | 32.4 | 10.4% | 0% | 86.7% | 2.61% | 27.2 percentage of gated cells | 1.75 percentage of gated cells | 4.23 percentage of gated cells | 65.5 percentage of gated cells |  |  |  |  | proliferation of EpCAM-CD44+ cell sub-population ([2]; enriched CTCs, 8 days culture): 4.23 % gated; enrichment of Irinotecan treated cells for cancer stem cells above non-cytokine treated controls [3]: enriched
Il-8: cytokine IL-8 added to cultured CTCs |  |  |  |  |  |  |  |  |  |  |  |  | 0.13 percentages of gated subpopulations | 2.51 percentages of gated subpopulations | 0.09 percentages of gated subpopulations | 90.8 percentages of gated subpopulations | 
HGF: Hepatocyte Growth Factor, cytokine added to cultured cancer cells | 58.6 | 3.29 | 0.31 | 35.9 | 17.2% | 0.2% | 80.8% | 1.58% | 16.8 percentage of gated cells | 4.89 percentage of gated cells | 2.12 percentage of gated cells | 74.9 percentage of gated cells |  |  |  |  | 
O=C(c1ccccc1)c1ccc2n1CCC2C(=O)O (stereo not shown) [ketorolac] |  |  |  |  |  |  |  |  |  |  |  |  |  |  |  |  | reduction in relapses [5]: 5 fold
IL-6: cytokine Interleukin 6 added to cultured cancer cells | 49.1 | 5.63 | 1.35 | 43.2 | 23.5% | 0% | 74.7% | 1.46% | 35.6 percentage of gated cells | 2.66 percentage of gated cells | 6.14 percentage of gated cells | 55 percentage of gated cells | 0.1 percentages of gated subpopulations | 2.98 percentages of gated subpopulations | 0.12 percentages of gated subpopulations | 90.5 percentages of gated subpopulations | percentage of cells positive for both EpCAM and CD44 ([2]; enriched CTCs, 8 days culture): highest; proliferation of EpCAM-CD44+ cell sub-population ([2]; enriched CTCs, 8 days culture): 6.14 % gated; increase in the EpCAM+CD133− subpopulation (significance, p<0.05) ([4]; compared to control): statistically significant; enrichment of Irinotecan treated cells for cancer stem cells above non-cytokine treated controls [3]: enriched
CC(=O)Oc1ccccc1C(=O)O [aspirin] |  |  |  |  |  |  |  |  |  |  |  |  |  |  |  |  | survival compared to no aspirin [6]: superior survival
CCCCC[C@H](O)/C=C/[C@@H]1[C@H]2C/C(=C/CCCC(=O)O)O[C@H]2C[C@H]1O [prostacyclin] |  |  |  |  |  |  |  |  |  |  |  |  |  |  |  |  | hepatic metastases [7]: complete elimination; pulmonary metastases [7]: reduction
bevacizumab: antiangiogenic agent |  |  |  |  |  |  |  |  |  |  |  |  |  |  |  |  | metastatic colonization [8]: prevented metastatic colonization; relapse ([9]; during the year on treatment, started 29-50 days post-operatively, with adjuvant chemotherapy): delayed relapse; overall survival ([9]; versus chemotherapy-only group): no net benefit
PDGFBB: Platelet derived growth factor BB added to cultured CTCs (protein, UniProt P01127 82-190, looked up, BB homodimer, Platelet derived growth factor BB added to cultured CTCs) Platelet-derived growth …: SLGSLTIAEPAMIAECKTRTEVFEISRRLIDRTNANFLVWPPCVEVQRCSGCCNNRNVQCRPTQVQLRPVQVRKIEIVRKKPIFKKATVTLEDHLACKCETVAAARPVT |  |  |  |  |  |  |  |  |  |  |  |  | 0.18 percentages of gated subpopulations | 2.29 percentages of gated subpopulations | 0.1 percentages of gated subpopulations | 90.5 percentages of gated subpopulations | 
